Assay results taken from US20070219117A1, “BIDENTATE MOTIF AND METHODS OF USE” (MEDVET SCIENCE PTY LTD, priority 2003, published 2007).
Entries after “also recorded” stand apart in the source; their conditions may differ.

Legend:
Format in all cases: cell-based
[1] = test system: primary human neutrophils; experiment: Survival of primary human neutrophils, annexin V-FITC; details: for effect on neutrophil survival in response to low concentrations of GM-CSF: 15 μM inhibitor; for cell survival: neutrophils
Experimental: Survival was determined by annexin V-FITC (Roche) staining essentially as previously described (Guthridge et al., 2000). […] After 48 hours, cells were stained with the 4H1 anti-GMRα mAb and annexin V-FITC. The proportion of GMRα-positive cells remaining viable (annexin V-FITC-negative) after culture was analysed by flow cytometry. […] In some experiments forskolin ICN Biochemicals), H89 (Seikaguku Corporation), LY294002 (Cayman Chemical Company), genestein (Sigma) or AG490 (Biomol) were used.

TF-1 cells = experiment: TF-1 cell survival, annexin V-FITC flow cytometry; details: data not shown
Experimental: Survival was determined by annexin V-FITC (Roche) staining essentially as previously described (Guthridge et al., 2000). Briefly, transduced fetal liver cells were plated in IMDM and either 0.1% or 10% FCS containing either no GM-CSF, […] hGM-CSF or a positive control cytokine cocktail containing 50 ng/ml IL-6 (Peprotech), 100 ng/ml mouse SCF and 10 ng/ml G-CSF (Amgen). After 48 hours, cells were stained with the 4H1 anti-GMRα mAb and annexin V-FITC. The proportion of GMRα-positive cells remaining viable (annexin V-FITC-negative) after culture was analysed by flow cytometry. The regulation of TF-1 cell survival by GM-CSF was determined as previously described (Guthridge et al., 2000; Guthridge et al., 2004). To examine the survival of primary human neutrophils in response to GM-CSF, we modified our previously described assay (Begley et al., 1986). Neutrophils purified by centrifugation through Lymphoprep (Axis-Shield) were plated at 1.5×10^5 cells/ml in IMDM/0.5% FCS containing different concentrations of GM-CSF and cell survival was examined as previously described (Guthridge et al., 2000). In some experiments forskolin ICN Biochemicals), H89 (Seikaguku Corporation), LY294002 (Cayman Chemical Company), genestein (Sigma) or AG490 (Biomol) were used.

[2] = test system: βc subunit of the GM-CSF receptor (Ser585, Tyr577); experiment: βc immunoprecipitation and phospho-specific immunoblot in TF-1 cells after GM-CSF titration
Experimental: (§1) Cells were factor-deprived in RPMI containing 0.1% FCS for 24 h and then stimulated for 10 min with different GM-CSF concentrations before lysis as previously described (Guthridge et al., 2000). Human mononuclear cells from normal donors and from leukemic patients were separated from peripheral blood by centrifugation over ficoll. The βc subunit was immunoprecipitated using a mixture of 1C1 and 8E4 anti-βc mAb (1C1/8E4)(1 μg each/immunoprecipitation) and immunoprecipitates subjected to SDS-PAGE and immunoblot analysis. Affinity purified anti-14-3-3 pAb (EB1) were used at a dilution of 1:5000 (Guthridge et al., 2000). Anti-MAP2 mAb (MK12)(Pharmingen) was used at a dilution of 1:5000. Anti-p85 pAb antibodies (UBI) were used at a dilution of 1:1000. The 4G10 anti-phosphotyrosine mAb (UBI) was used at 1 pg/ml. The anti-active-ERK pAb (Promega) was used at 50 ng/ml, the anti-phosphorylated STAT5 mAb (Zymed) was used at 2 μg/ml, the anti-phospho-JAK2 pAb (Affinity Bioreagents) was used at 0.5 μg/ml. Affinity purified anti-βc phospho-577 pAb (Guthridge et al., 2004) were used at a dilution of 1:1000. Antibodies to phospho-Ser585 of βc (Guthridge et al., 2000) were used at a dilution of 1:5000. The phosphorylation of Akt in response to GM-CSF was examined in CTL-EN cells electroporated with the pCMV-AKT-HA plasmid (30 μg DNA/1×10^7 cells)(kindly provided by P. N. Tsichlis). 24 h after electroporation the cells were factor-deprived overnight in DMEM/0.5% FCS. Cells were then stimulated (10^7 cells/time point) with either 1 pM or 1000 pM GM-CSF and lysed in RIPA buffer (150 mM NaCl, 1.0% NP40, 0.5% Deoxycholate, 0.1% SDS, 50 mM Tris pH8.0) and subjected to SDS-PAGE and immunoblot analysis with the anti-phospho-Akt Ser473 pAb (1:1000)(Cell Signalling Technologies).

JAK2, STAT5 and ERK = experiment: Immunoblot of TF-1 lysates for phospho-JAK2, phospho-STAT5 and active ERK; details: also βc tyrosine phosphorylation and p85 recruitment
Experimental: as §1, with “24 h after electroporation the cells were factor-deprived overnight in DMEM/0.5% FCS. Cells were then stimulated (10^7 cells/time point) with either 1 pM or 1000 pM GM-CSF and lysed in RIPA buffer (150 mM NaCl, 1.0% NP40, 0.5% Deoxycholate, 0.1% SDS, 50 mM Tris pH8.0) and subjected to SDS-PAGE and immunoblot analysis with the anti-phospho-Akt Ser473 pAb (1:1000)(Cell Signalling Technologies).” left out

PKA = experiment: Protein kinase A (PKA) kinase assay in TF-1 cells; details: 1 pM GM-CSF, up to 30 min, compared with 1000 pM
Experimental: TF-1 cells were factor-deprived overnight in DMEM containing 0.5% FCS. Cells (4×10^6) were stimulated with GM-CSF or forskolin before lysis in 1 ml 20 mM Tris HCl pH 7.4, 0.5 mM EDTA, 0.5 mM EGTA, 10 mM 2-mercaptoethanol, 5% Glycerol and 2 mM NaF by 20 strokes of a dounce homogenizer on ice. The lysate was centrifuged at 170 g for 15 min and the supernatant then centrifuged at 100,000 g for 1 h at 4° C. The resulting pellet was resuspended in NP40 lysis buffer with a protease/phosphatase inhibitor cocktail (Guthridge et al., 2000; Guthridge et al., 2004). Lysate (2 μl) was then tested for PKA activity by adding 40 μM kemptide, 0.25 μCi [y-^32P] ATP, 1 μM cold ATP, in a buffer containing 10 mM MgCl2, 10 mM Tris HCl pH7.4, 1 mM β-glycerol phosphate and 1 mM DTT. Reactions (20 μl) were incubated at 30° C. for 30 min and aliquots were examined for 32P-labelled kemptide on p81 phosphocellulose filters (Whatman) and liquid scintillation counting (Guthridge et al., 2000).

Akt = Akt Ser473 phosphorylation immunoblot in CTL-EN cells expressing the wt GM-CSF receptor; details: 1 pM GM-CSF, compared with 1000 pM GM-CSF
Experimental: as §1, with “24 h after electroporation the cells were factor-deprived overnight in DMEM/0.5% FCS. Cells were then stimulated (10^7 cells/time point) with either 1 pM or 1000 pM GM-CSF and lysed in RIPA buffer (150 mM NaCl, 1.0% NP40, 0.5% Deoxycholate, 0.1% SDS, 50 mM Tris pH8.0) and subjected to SDS-PAGE and immunoblot analysis with the anti-phospho-Akt Ser473 pAb (1:1000)(Cell Signalling Technologies).” left out

With `N#C/C(=C/c1ccc(O)c(O)c1)C(=O)NCc1ccccc1` [AG490] the “effect on neutrophil survival in response to low concentrations of GM-CSF” value [1] was “Neither inhibitor was able to block; also recorded: survival was increased”.

For `O=S(=O)(NCCNC/C=C/c1ccc(Br)cc1)c1cccc2cnccc12` [H89], the “effect on ability of GM-CSF to promote survival in TF-1 cells” value (TF-1 cells) was “reduced” and the “effect on GM-CSF-promoted survival of neutrophils” value ([1]; neutrophils stimulated with GM-CSF) was “reduced”.

`C=C[C@@]1(C)CC(=O)[C@]2(O)[C@@]3(C)[C@@H](O)CCC(C)(C)[C@@H]3[C@H](O)[C@H](OC(C)=O)[C@@]2(C)O1` [forskolin] gave a cell survival ([1]; forskolin in the absence of GM-CSF (from 27% without)) of 46%.

`O=c1c(-c2ccc(O)cc2)coc2cc(O)cc(O)c12` [genestein] was tested, and the “effect on neutrophil survival in response to low concentrations of GM-CSF” value [1] was “Neither inhibitor was able to block”.

In the case of “GM-CSF: cytokine; human GM-CSF used to stimulate cells via the GM-CSF receptor”, the cell survival ([1]; 0.1 pM GM-CSF) is reported as 90%, the cell survival ([1]; 1 pM GM-CSF) is reported as 83% and the “GM-CSF concentration at which Tyr577 phosphorylation was detectable” value ([2]; TF-1 cells, 10 min stimulation) is reported as “greater than 10 pM”. For the same compound, the “GM-CSF concentration at which phosphorylation of Ser585 decreased” value ([2]; TF-1 cells, 10 min stimulation) was 10 pM, the “GM-CSF concentration at which phosphorylation of Ser585 increased” value ([2]; TF-1 cells, 10 min stimulation) was < 3 pM and the “GM-CSF concentration at which phosphorylation of Ser585 was virtually absent” value ([2]; TF-1 cells, 10 min stimulation) was “over 100 pM”. The “GM-CSF concentration that promotes Ser585 phosphorylation, 14-3-3 binding and p85 recruitment” value ([2]; low concentration signal) was < 3 pM, the “GM-CSF concentration resulting in phosphorylation of JAK2, STAT5 and ERK” value (JAK2, STAT5 and ERK) was > 10 pM and the PKA activity (PKA) was “higher and more sustained”. The “phosphorylation of Ser473 of Akt” value (Akt) was “the magnitude was reduced and the kinetics were delayed”.
